Measurements: patent publication US20170319552A1, “ATROPISOMERS OF TRIAZOLE DERIVATIVE” (ARDEA BIOSCIENCES, INC., priority 2016, published 2017)
Like-named read-outs stand apart in the source and are kept apart here.

What was measured:
[1] = In vivo human metabolism, plasma and urine pharmacokinetics after single oral dose of racemic Compound (I)
Procedure: Plasma samples were collected prior to dosing (within 30 minutes before dosing) and at the following timepoints: 0.5, 1, 1.5, 2, 3, 4, 5, 6, 8, 10, 12, and 24 hours postdose. Urine was also collected. […] The supernatant was diluted with injection solvent and analyzed by HPLC with tandem mass spectrometry (LC/MS/MS). […] The calibration curves were linear over the concentration range between 5.00 ng/mL and 2000 ng/mL with a lower limit of quantification (LLOQ) of 5.00 ng/mL.
Using the above data, the following plasma pharmacokinetic parameters were calculated using validated Phoenix WinNonlin, version 6.3 (Pharsight Corporation, Mountain View, Calif.) and are shown (geometric mean 95% CI) in tables 11, 12, and 13 below.
• Cmax: Maximum observed concentration (μg/mL) • Tmax: Time of occurrence of maximum observed concentration (hr) • AUC0-24: Area under plasma concentration-vs-time curve, from time 0 to 24 hours postdose (μg·hr/mL) • C24: Concentration 24 hours post dose (μg/mL) • t1/2: Apparent terminal half-life (hr)

[2] = Solubility in water; assay type: physicochemical
[3] = Atropisomer interconversion, thermal challenge in organic solvent (acetonitrile); assay type: physicochemical
Procedure: (§1) The individual atropisomers of Compound (I), atropisomer 1 and atropisomer 2 (elution order from normal-phase chiral chromatography) were exposed to various conditions, including thermal challenge in both organic and aqueous media and exposure to simulated biological conditions, to ascertain whether they readily interconvert.
Samples of each separate atropisomers were held at 60° C. for four days and then analyzed by high performance liquid chromatography (AGMS02 Agilent 1100) on a normal phase amylose-based chiral column (ChiralPak IA-3, 3 μm, 100×4.6 mm, column 244), using isocratic elution and UV detection at 226 nm (see example 1).

[4] = Atropisomer interconversion, thermal challenge in aqueous solvent (dilute sodium bicarbonate); assay type: physicochemical
Procedure: as §1
Atropisomer 1 was dissolved in dilute aqueous sodium bicarbonate solution. Atropisomer 2 was dissolved in dilute aqueous sodium bicarbonate solution. […] Samples of the resulting solutions were exposed to room temperature (rt), 60° C., and 100° C. for four days. After four days, the samples were concentrated to dryness (SpeedVac evaporator—DNA120, property H001630), redissolved in acetonitrile and analyzed by high performance liquid chromatography (AGMS02 Agilent 1100) on a normal phase amylose-based chiral column (ChiralPak IA-3, 3 μm, 100×4.6 mm, column 244), using isocratic elution and UV detection at 226 nm (see example 1). […] Sample chromatograms at t0, 60° C., and 100° C. after four days, are depicted in FIG. 3A, FIG. 3B and FIG. 3C respectively.

[5] = target: T1, human URAT1 transporter (Homo sapiens, UniProt Q96S37); assay: HEK293 hURAT1 stable cell-line uric acid uptake assay; assay type: cell-based; settings: from IC50 values of table 5
T1 sequence (Q96S37 1-553): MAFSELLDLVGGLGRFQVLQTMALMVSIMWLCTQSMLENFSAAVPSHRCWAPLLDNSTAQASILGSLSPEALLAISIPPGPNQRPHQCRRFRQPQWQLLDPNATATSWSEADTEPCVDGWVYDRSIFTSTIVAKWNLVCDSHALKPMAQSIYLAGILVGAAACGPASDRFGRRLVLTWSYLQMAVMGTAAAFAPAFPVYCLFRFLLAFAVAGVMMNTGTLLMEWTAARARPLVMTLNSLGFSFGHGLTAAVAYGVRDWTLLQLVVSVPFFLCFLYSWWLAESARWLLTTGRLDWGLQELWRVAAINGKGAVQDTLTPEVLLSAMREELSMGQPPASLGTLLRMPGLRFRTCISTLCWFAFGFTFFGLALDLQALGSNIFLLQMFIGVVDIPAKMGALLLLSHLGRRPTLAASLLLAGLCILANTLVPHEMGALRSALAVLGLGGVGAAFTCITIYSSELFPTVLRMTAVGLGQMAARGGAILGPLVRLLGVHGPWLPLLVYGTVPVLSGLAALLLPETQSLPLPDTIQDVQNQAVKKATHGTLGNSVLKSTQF
From the text: Generation and Screening of HEK293 Stable Cell Lines—HEK293 human embryonic kidney cells (ATCC #CRL-1573, Manassas, Va.) were propagated in EMEM tissue culture medium as described by ATCC in an atmosphere of 5% CO2 and 95% air. HEK293 cells were transfected with the expression plasmids described above (pCMV6-neo URAT1 or pCMV6-neo OAT4) using Lipofectamine 2000 (Invitrogen, Carlsbad, Calif.), according to the manufacturer's instructions. The lipid/DNA transfection mixture was removed after five hours on the cells and fresh growth medium was added. After another 24 hr the cells were split into 10 cm plates. The next day G418 (Gibco, Carlsbad, Calif.) selection agent was added to the growth medium at a final concentration of 0.5 mg/ml. Fresh G418-containing medium was added every three days until drug-resistant colonies were obtained and also when the majority of mock-transfected cells were dead. […]
HEK293 hURAT 1 Stable Cell-Line Uric Acid Uptake Assay—Cells were seeded onto 96-well poly-D-lysine coated tissue culture plates at a density of 1.25×10^5 cells per well and grown at 37° C. overnight. […] Cells were lysed by adding 150 μl of MicroScint 20 scintillation fluid (PerkinElmer) to each well and radioactivity was counted the following day using a Beckman TopCount plate reader.
Calculation—The IC50 was calculated using Sigmoidal Dose-Response Model using XLFIT(IDBS, Alameda, Calif.).

[6] = In vitro metabolism, incubations with human liver microsomes; assay type: in vitro ADME
Procedure: Human liver microsomes (0.5 mg/mL; mixed gender, ultrapooled, BD Biosciences, catalog number 452117) were incubated at 37±1° C. in 0.2 mL (final volume) of incubation mixtures containing potassium phosphate buffer (100 mM, pH7.4), MgCl2 (3 mM), NADPH (1 mM), and the atropisomers (1, 10, or 50 μM) (all experiments performed in duplicate). Stock solutions of atropisomers were prepared with DMSO at 100 mM. The final concentration of DMSO in the incubation was at or less than 0.05%. Reactions were initiated by addition of NADPH solution and terminated at predetermined time point (30 min) by addition of stop reagent (300 μL chilled acetonitrile containing 0.1 μM of 7-hydroxycoumarin as an internal standard). After incubation, microsomal proteins were precipitated by centrifugation at 3300×g for 15 min at 4° C. Supernatant fractions were analyzed by LC-MS/MS.
HPLC mass spectrometer system: An API4000 triple quadrupole mass spectrometer equipped with electrospray ionization ion source was used for quantitation and operated in positive mode. The HPLC system consisted of a CTC Analytics PAL autosampler, an Agilent 1100 series degasser (G1379A), and an Agilent 1100 series binary pump (G1312A). […]
The formation of M3, M3c, M4 and M6 from each atropisomer in liver microsomal and recombinant CYP incubations was determined, based on the peak area ratio of analyte over internal standard (IS)

[7] = plasma, geometric mean, single oral 400 mg racemic Compound (I), human
[8] = Plasma Concentration (Mean), single oral 400 mg racemic Compound (I), human
[9] = Urine PK Parameters (Geometric mean, CI 95%), single oral 400 mg racemic Compound (I), human

Question: Which concentration at 0.5 h ([1]; male, human, plasma, po, 400 mg, 0.5 hr postdose, single oral 400 mg Compound (I) racemic mixture, adult male subjects) does the source give for `O=C(O)CSc1nnc(Br)n1-c1ccc(C2CC2)c2ccccc12` (racemic) [Compound (I), 2-(5-bromo-4-(4-cyclopropylnaphthalen-1-yl)-4H-1,2,4-triazol-3-ylthio)acetic acid] here?
Answer: 157 ng/mL

Question: And the concentration at 1 h ([1]; male, human, plasma, po, 400 mg, 1 hr postdose, single oral 400 mg Compound (I) racemic mixture, adult male subjects)?
Answer: 3900 ng/mL

Question: What about the concentration at 1.5 h ([1]; male, human, plasma, po, 400 mg, 1.5 hr postdose, single oral 400 mg Compound (I) racemic mixture, adult male subjects) of the same compound?
Answer: 7860 ng/mL

Question: And the concentration at 2 h ([1]; male, human, plasma, po, 400 mg, 2 hr postdose, single oral 400 mg Compound (I) racemic mixture, adult male subjects)?
Answer: 9380 ng/mL

Question: And the concentration at 3 hr ([1]; male, human, plasma, po, 400 mg, 3 hr postdose, single oral 400 mg Compound (I) racemic mixture, adult male subjects)?
Answer: 11400 ng/mL

Question: And the concentration at 4 hr ([1]; male, human, plasma, po, 400 mg, 4 hr postdose, single oral 400 mg Compound (I) racemic mixture, adult male subjects)?
Answer: 9080 ng/mL

Question: What about the concentration at 5 hr ([1]; male, human, plasma, po, 400 mg, 5 hr postdose, single oral 400 mg Compound (I) racemic mixture, adult male subjects) of the same compound?
Answer: 6980 ng/mL

Question: What about the concentration at 6 hr ([1]; male, human, plasma, po, 400 mg, 6 hr postdose, single oral 400 mg Compound (I) racemic mixture, adult male subjects) of the same compound?
Answer: 3810 ng/mL

Question: What about the concentration at 8 hr ([1]; male, human, plasma, po, 400 mg, 8 hr postdose, single oral 400 mg Compound (I) racemic mixture, adult male subjects) of the same compound?
Answer: 1530 ng/mL

Question: What about the concentration at 10 hr ([1]; male, human, plasma, po, 400 mg, 10 hr postdose, single oral 400 mg Compound (I) racemic mixture, adult male subjects) of the same compound?
Answer: 815 ng/mL

Question: And the concentration at 12 hr ([1]; male, human, plasma, po, 400 mg, 12 hr postdose, single oral 400 mg Compound (I) racemic mixture, adult male subjects)?
Answer: 503 ng/mL

Question: And the concentration at 24 h ([1]; male, human, plasma, po, 400 mg, 24 hr postdose, single oral 400 mg Compound (I) racemic mixture, adult male subjects)?
Answer: 84 ng/mL

Question: And the AUC(0-t) ([1]; male, human, plasma, po, 400 mg, Plasma Concentration (Mean), single oral 400 mg racemic Compound (I), human, read-out: AUC0-24)?
Answer: 54900 ng·h/mL

Question: And the Cmax ([1]; male, human, plasma, po, 400 mg, Plasma Concentration (Mean), single oral 400 mg racemic Compound (I), human, read-out: Cmax)?
Answer: 13500 ng/mL

Question: And the Cmax ([1]; male, human, plasma, po, 400 mg, plasma, geometric mean, single oral 400 mg racemic Compound (I), human, read-out: Cmax: Maximum observed concentration)?
Answer: 12800 ng/mL

Question: What about the half-life ([1]; male, human, plasma, po, 400 mg, plasma, geometric mean, single oral 400 mg racemic Compound (I), human, read-out: t1/2: Apparent terminal half-life (converted)) of the same compound?
Answer: 4.18 h

Question: What about the concentration at 0 h ([1]; male, human, plasma, po, 400 mg, time 0 hr (prior to dosing), single oral 400 mg Compound (I) racemic mixture, adult male subjects) of the same compound?
Answer: 0 ng/mL

Question: And the Tmax ([1]; male, human, plasma, po, 400 mg, read-out: Tmax: Time of occurrence of maximum observed concentration)?
Answer: 3 h

Question: What about the “AUC0-24: Area under plasma concentration-vs-time curve, from time 0 to 24 hours postdose” value [1, 7] of the same compound?
Answer: 52.9 µg·h/mL

Question: And the Solubility in water [2]?
Answer: low

Question: What does the source list for `O=C(O)CSc1nnc(Br)n1-c1ccc(C2CC2)c2ccccc12` (single isomer, unassigned) [Atropisomer 2, (+)-2-(5-bromo-4-(4-cyclopropylnaphthalen-1-yl)-4H-1,2,4-triazol-3-ylthio)acetic acid]?
Answer: % Atropisomer 1 ([3]; acetonitrile 0.25 mg/mL, t0): 1.0%; % Atropisomer 2 ([3]; acetonitrile 0.25 mg/mL, t0): 99.0%; % Atropisomer 1 ([3]; acetonitrile, 60° C. 4 days): 1.0%; % Atropisomer 2 ([3]; acetonitrile, 60° C. 4 days): 99.0%; % Atropisomer 1 ([4]; 60° C. 4 days): 0.4%; % Atropisomer 2 ([4]; 60° C. 4 days): 99.6%; % Atropisomer 1 ([4]; 100° C. 4 days): 0.6%; % Atropisomer 2 ([4]; 100° C. 4 days): 99.4%; % Atropisomer 1 ([4]; rt, 4 days): 0.4%; % Atropisomer 2 ([4]; rt, 4 days): 99.6%; % Atropisomer 1 ([4]; t0 (control)): 0.4%; % Atropisomer 2 ([4]; t0 (control)): 99.6%; Greater inhibition of URAT1 than atropisomer 1 [5]: approximately 4 fold; M3c formation [6]: only trace levels; Mean plasma concentration ([1]; 0.5 hr postdose, single oral 400 mg Compound (I) racemic mixture, adult male subjects): 108 ng/mL; Mean plasma concentration ([1]; 1 hr postdose, single oral 400 mg Compound (I) racemic mixture, adult male subjects): 2573 ng/mL; Mean plasma concentration ([1]; 1.5 hr postdose, single oral 400 mg Compound (I) racemic mixture, adult male subjects): 4975 ng/mL; Mean plasma concentration ([1]; 2 hr postdose, single oral 400 mg Compound (I) racemic mixture, adult male subjects): 5765 ng/mL; Mean plasma concentration ([1]; 3 hr postdose, single oral 400 mg Compound (I) racemic mixture, adult male subjects): 6921 ng/mL; Mean plasma concentration ([1]; 4 hr postdose, single oral 400 mg Compound (I) racemic mixture, adult male subjects): 5577 ng/mL; Mean plasma concentration ([1]; 5 hr postdose, single oral 400 mg Compound (I) racemic mixture, adult male subjects): 4314 ng/mL; Mean plasma concentration ([1]; 6 hr postdose, single oral 400 mg Compound (I) racemic mixture, adult male subjects): 2322 ng/mL; Mean plasma concentration ([1]; 8 hr postdose, single oral 400 mg Compound (I) racemic mixture, adult male subjects): 918 ng/mL; Mean plasma concentration ([1]; 10 hr postdose, single oral 400 mg Compound (I) racemic mixture, adult male subjects): 495 ng/mL; Mean plasma concentration ([1]; 12 hr postdose, single oral 400 mg Compound (I) racemic mixture, adult male subjects): 309 ng/mL; Mean plasma concentration ([1]; 24 hr postdose, single oral 400 mg Compound (I) racemic mixture, adult male subjects): 63 ng/mL; AUC0-24 [1, 8]: 33800 ng·h/mL; Cmax [1, 8]: 8200 ng/mL; Ae0-24 [1, 9]: 101 mg; CLR0-24 [1, 9]: 51.6 mL/min; AUC0-24: Area under plasma concentration-vs-time curve, from time 0 to 24 hours postdose [1, 7]: 32.7 µg·h/mL; C24 h: Concentration 24 hours post dose [1, 7]: 50.8 ng/mL; Cmax: Maximum observed concentration [1, 7]: 7920 ng/mL; t1/2: Apparent terminal half-life [1, 7]: 4.67 h; Tmax: Time of occurrence of maximum observed concentration ([1]; plasma, single oral 400 mg racemic Compound (I), human): 3.00 h; Mean plasma concentration ([1]; time 0 hr (prior to dosing), single oral 400 mg Compound (I) racemic mixture, adult male subjects): 0 ng/mL
